Assay results: patent US8822509B2, “Pain-relieving compositions and uses therefor” (priority 2006, dated 2014)
Like-named read-outs stand apart in the source and are kept apart here. Marks after values point to notes of the source that are not given here.

Assays:
[1] = molecular target: T1, μ-opioid receptors (MOP receptors) (Mus musculus, UniProt P42866); format: cell-based
T1 construct: expressed in transfected cells; host or cells: HEK293
Method: Briefly, HEK-MOP cells were pre-incubated with 2% (2-hydroxypropyl)-β-cyclodextrin (βCD) for 1 h at 37° C. to deplete cholesterol from caveloae in the cell membrane. Cells were washed with DMEM and then utilized in the forskolin-stimulated cAMP assay as described above. […] Cells were washed with DMEM and then utilized in the forskolin-stimulated cAMP assay as described above.

[2] = molecular target: T1, μ-opioid receptors (MOP receptors); format: cell-based; remark: listed apart in the source
[3] = In vitro NO release (Total NOx, modified Griess reagent assay); settings: assay of Example 9; for 1 Hour Total NOx: NOx analysis at 1 hour; for 6 Hours Total NOx: NOx analysis at 6 hours
Method: Briefly, HEK-MOP cells were seeded at 1×10^5 cells/mL and grown in 10 cm plates to 90% confluence. Four hours prior to experimentation, cell medium was replaced with phenol red-free DMEM. […] Following removal of each supernatant sample, it was replaced with 500 μL of phenol red-free DMEM. Samples were immediately placed on ice until NOx concentrations were quantified.
Sample aliquots (100 μL) were added to 96-well plates in duplicates. Nitrate was first converted to nitrite to determine total NOx concentrations with the addition of 100 μL aliquots of vanadium (III) chloride in 1M HCl (800 mg/100 mL) per well, followed by 100 μL aliquots of modified Griess reagent which converted nitrite to a deep purple azo derivative for spectrophotometric quantification at 560 nm using an Envision Multilabel Plate Reader (PerkinElmer Life Sciences). […] Total NOx and nitrite concentration was determined through inverse prediction against the nitrite standard curve.

[4] = system: hindpaws of control non-diabetic rats; assay: Antinociception by von Frey PWT in control non-diabetic rats; format: in vivo, Wistar rats; settings: single s.c. bolus; morphine 1.8-21.4 μmol/kg, Compound 1 2-20 fmol/kg
Method: (§1) Briefly, baseline PWTs were determined for both hindpaws prior to each antinociceptive testing session in the non-diabetic control group at week 0 as well as in groups of STZ-diabetic rats at 10, 14 and 24 wks.
(§2) The PWT vs time data were normalized by subtracting the pre-dosing baseline PWT values for each individual rat to obtain ΔPWT values as follows: Normalized (Δ)PWT value=Post-treatment PWT value−PWT value prior to treatment.
(§3) ΔPWT versus time curves were then constructed. Trapezoidal integration was used to estimate ΔPWT AUC values for individual rats in the non-diabetic and STZ-diabetic rat treatment groups. ΔPWT AUC versus dose curves were constructed and GraphPad™ Prism was used to estimate the ˜ED50 values.

STZ-diabetic rats [5] = assay: Behavioural side-effects in STZ-diabetic rats; format: in vivo; settings: Compound 1 800 pmol/kg s.c.; morphine 21 μmol/kg
[6] = system: tactile (mechanical) allodynia in hindpaws of STZ-diabetic rats; assay: Anti-allodynia by von Frey paw withdrawal thresholds (PWT) in STZ-diabetic rats; format: in vivo, Wistar rats
Method: Following this, the jugular cannula was withdrawn, the vein tied off, and the incision sutured. Following surgery, rats received antibiotic prophylaxis in the form of topical dusting powder over the sutured incisions, as well as a subcutaneous injection of benzylpenicillin (60 mg). Rats were placed in individual cages, kept warm and monitored closely during the surgical recovery period. Rats were classified as diabetic if on day 10 post-STZ administration, their daily water intake was ≧100 mL and their corresponding blood glucose levels (BGLs) were ≧15 mM.
Calibrated von Frey filaments were used to document the time course for the development and maintenance of tactile allodynia (defining symptom of PDN).
as §1, §2, §3

STZ-diabetic rats [7] = assay: Tolerance development (7-day s.c. infusion, 2-day washout) in STZ-diabetic rats, von Frey PWT; format: in vivo
[8] = system: non-diabetic control rats; assay: Tolerance development (7-day continuous s.c. infusion, 2-day washout) in non-diabetic control rats, von Frey PWT; format: in vivo
[9] = system: mechanical allodynia in rats hyporesponsive to morphine; assay: Relief of mechanical allodynia (PWT) in rats hyporesponsive to morphine; format: in vivo
[10] = week 10 post-STZ, morphine 2.8 μmol/kg s.c.
[11] = drug-naïve non-diabetic rats, Compound 1 8 fmol/kg, morphine 2.8 mmol/kg (so in the source) s.c. bolus
[12] = non-diabetic rats, second s.c. bolus after 7-day infusion and 2-day washout

T1 sequence (P42866 whole entry): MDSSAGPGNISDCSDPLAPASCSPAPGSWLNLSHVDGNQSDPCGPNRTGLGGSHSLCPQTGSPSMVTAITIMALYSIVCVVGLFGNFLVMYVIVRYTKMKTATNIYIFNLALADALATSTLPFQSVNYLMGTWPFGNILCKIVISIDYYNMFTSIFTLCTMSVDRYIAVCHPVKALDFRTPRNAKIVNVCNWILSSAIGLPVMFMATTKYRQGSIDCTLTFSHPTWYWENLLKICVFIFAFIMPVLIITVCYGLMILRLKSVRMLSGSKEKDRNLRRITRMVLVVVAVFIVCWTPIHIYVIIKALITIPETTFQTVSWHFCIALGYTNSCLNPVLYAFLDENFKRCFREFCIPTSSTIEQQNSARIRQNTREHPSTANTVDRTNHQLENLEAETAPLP

SMILES | % of forskolin stimulated cyclic AMP response ([1]; Conc 10^−3 M) | % of forskolin stimulated cyclic AMP response ([1]; Conc 10^−4 M) | % of forskolin stimulated cyclic AMP response ([1]; Conc 10^−5 M) | % of forskolin stimulated cyclic AMP response ([1]; Conc 10^−6 M) | % of forskolin stimulated cyclic AMP response ([1]; Conc 10^−7 M) | % of forskolin stimulated cyclic AMP response ([1]; Conc 10^−8 M) | % of forskolin stimulated cyclic AMP response ([1]; Conc 10^−9 M) | % of forskolin stimulated cyclic AMP response ([1]; Conc 10^−11 M) | % of forskolin stimulated cyclic AMP response ([1]; Conc 10^−13 M) | % of forskolin stimulated cyclic AMP response ([1]; Conc 10^−14 M) | % of forskolin stimulated cyclic AMP response ([1]; Conc 10^−15 M) | % of forskolin stimulated cyclic AMP response ([1]; Conc 10^−16 M) | % of forskolin stimulated cyclic AMP response ([1]; Conc 10^−17 M) | % of forskolin stimulated cyclic AMP response ([1]; Conc 10^−18 M) | % of forskolin stimulated cyclic AMP response ([2]; Conc 10^−10 M) | % of forskolin stimulated cyclic AMP response ([2]; Conc 10^−12 M) | 1 Hour Total NOx [3] | 6 Hours Total NOx [3] | also measured
Cc1c(C(=O)O)no[n+]1[O-] [Compound 6] | 8.1% | 115.0% | 138.7% | 109.7% | 110.5% | 111.2% | 88.2% | 88.0% | 128.0% | 98.2% | 79.0^a % | 149.0% | 83.9% | 60.4% | 61.5% | 91.1% | 0.31 µM | 0.53 µM | –
O=C(c1no[n+]([O-])c1-c1ccccc1)C(F)(F)F [Compound 22] | 0.3% | 18.2% | 77.9% | 87.5% | 68.4% | 82.1% | 65.2% | 59.2% | 70.5% | 104.6% | 89.0% | 73.2% | 59.4^b % | 47.0% | 66.1% | 62.4% | 1.63 µM | 2.52 µM | –
CN1CC[C@]23c4c5ccc(O)c4O[C@H]2[C@@H](O)C=C[C@H]3[C@H]1C5 [morphine, reference compound] | – | – | – | – | – | – | – | – | – | – | – | – | – | – | – | – | – | – | antinociception in the hindpaws of control non-diabetic rats [4]: dose-dependent antinociception; behavioural side-effects at highest dose (STZ-diabetic rats [5]): staring and sedation; time of peak effect post-dosing ([6]; morphine 1.8-21.4 μmol/kg s.c. (FIG. 2)): 30 to 60 min; anti-allodynia in the hindpaws of STZ-diabetic rats ([6]; single s.c. bolus at 10, 14, 24 wks post-STZ): dose-dependent anti-allodynia; mean (±SEM) PWT at time of peak response [6, 10]: 10.7 ± 0.6 g; reversal of mechanical allodynia at time of peak response [6, 10]: fully reversed mechanical allodynia; anti-allodynic potency ([6]; week 14 post-STZ, morphine 2.8 μmol/kg s.c.): significantly reduced; relief of mechanical allodynia at time of peak response ([6]; week 14 post-STZ, morphine 10.5 μmol/kg s.c.): completely relieved mechanical allodynia; anti-allodynic potency ([6]; week 24 post-STZ, morphine 10.5 and 21.4 μmol/kg s.c.): markedly reduced; tolerance after 7-day s.c. infusion (STZ-diabetic rats [7]; STZ-diabetic rats): antinociceptive tolerance developed; anti-allodynia after second bolus (tolerance status) (STZ-diabetic rats [7]; STZ-diabetic rats, after 2-day washout, morphine 10.5 μmol/kg, Compound 1 800 pmol/kg): insignificant anti-allodynia; time of peak anti-allodynia post-dosing (STZ-diabetic rats [7]; naïve STZ-diabetic rats, first s.c. bolus): 1 h; mean (±SEM) peak PWT (STZ-diabetic rats [7]; naïve STZ-diabetic rats, Compound 1 800 pmol/kg, morphine 10.4 μmol/kg s.c. bolus): 10.7 (±0.3) g; time of peak antinociception post-dosing ([8]; drug-naïve non-diabetic rats, first s.c. bolus): 1 h; mean (±SEM) peak PWT [8, 11]: 16.0 (±0.4) g; mean (±SEM) peak ΔPWT [8, 11]: 4.4 (±0.4) g; tolerance after 7-day continuous s.c. infusion ([8]; non-diabetic rats): antinociceptive tolerance developed; antinociception after second bolus, naïve vs "tolerant" rats ([8]; non-diabetic rats, after 2-day washout): tolerant to the antinociceptive effects of morphine; mean (±SEM) peak PWT [8, 12]: 12 (±0.3) g; mean (±SEM) peak ΔPWT [8, 12]: 0.5 (±0.3) g
O=C1CCc2c1no[n+]2[O-] [Compound 16] | 18.9% | 44.3% | 105.2% | 83.5% | 119.9% | 62.2% | 125.4% | 67.1% | 98.8% | 106.3% | 97.7% | 108.3% | 100.4% | 62.4^a % | 101.3% | 59.3% | 1.08 µM | 1.19 µM | –
O=C(O)CCCCO[N+](=O)[O-] [Compound 33, 5-nitratopentanoic acid] | – | – | – | – | – | – | – | – | – | – | – | – | – | – | – | – | 13.14 µM | 67.69 µM | inhibition of forskolin-stimulated cyclic AMP formation ([2]; μm to mm range (so in the source)): dose dependent inhibition; relief of mechanical allodynia ([9]; Compound 33 80 nmol/kg s.c. bolus): insignificant relief; relief of mechanical allodynia ([9]; Compound 33 120, 800 and 1200 nmol/kg s.c. bolus): significant relief of mechanical allodynia; duration of anti-allodynia ([9]; Compound 33 s.c. bolus): 2 to 3 h; time of peak anti-allodynia post-dosing ([9]; Compound 33 s.c. bolus): 0.75 to 1 h
